Data reported in ChEMBL document CHEMBL3244216, “Chemical modification of 1,4-diamino-1,4-dideoxy-3-O-(4-deoxy-4-propionamido-alpha-D-glucopyranosyl)-D-glucitol” (1978).
Converted amounts (≈) assume the structure as drawn. The source made the active and inactive calls. No cut-off for these calls is given here.

Tests used:
Salmonella [1] = experiment: Antibacterial activity against drug-sensitive Salmonella 1287 assessed as growth inhibition by agar dilution method; format: functional; parameters: unit not given here
Proteus vulgaris [2] = experiment: Antibacterial activity against drug-sensitive Proteus vulgaris 838 assessed as growth inhibition by agar dilution method; format: functional; parameters: unit not given here
Erwinia = experiment: Antibacterial activity against drug-sensitive Erwinia 1159 assessed as growth inhibition by agar dilution method; format: functional; parameters: unit not given here
Pseudomonas aeruginosa [3] = experiment: Antibacterial activity against kanamycin and gentamicin-resistant Pseudomonas aeruginosa 3033 assessed as growth inhibition by agar dilution method; format: functional
Brucella [4] = experiment: Antibacterial activity against drug-sensitive Brucella 965 assessed as growth inhibition at => 200 ul/ml by agar dilution method; format: functional
Brucella [5] = experiment: Antibacterial activity against drug-sensitive Brucella 965 assessed as growth inhibition by agar dilution method; format: functional; parameters: unit not given here
Staphylococcus aureus [6] = experiment: Antibacterial activity against Staphylococcus aureus 210 assessed as growth inhibition by agar dilution method; format: functional; parameters: unit not given here
Staphylococcus aureus [7] = experiment: Antibacterial activity against streptomycin, neomycin, kanamycin-resistant Staphylococcus aureus 2314 assessed as growth inhibition by agar dilution method; format: functional
Bacillus subtilis = experiment: Antibacterial activity against drug-sensitive Bacillus subtilis 964 assessed as growth inhibition by agar dilution method; format: functional; parameters: unit not given here
Serratia [8] = experiment: Antibacterial activity against pigmented Serratia 155 assessed as growth inhibition by agar dilution method; format: functional; parameters: unit not given here
Escherichia coli [9] = experiment: Antibacterial activity against drug-sensitive Escherichia coli 60 assessed as growth inhibition by agar dilution method; format: functional; parameters: unit not given here
Staphylococcus aureus [10] = experiment: Antibacterial activity against drug-sensitive Staphylococcus aureus 2985 assessed as growth inhibition by agar dilution method; format: functional; parameters: unit not given here
Escherichia coli [11] = experiment: Antibacterial activity against drug-sensitive Escherichia coli 2482 assessed as growth inhibition by agar dilution method; format: functional; parameters: unit not given here
Serratia [12] = experiment: Antibacterial activity against unpigmented Serratia 2840 assessed as growth inhibition by agar dilution method; format: functional; parameters: unit not given here
Enterococcus faecalis [13] = experiment: Antibacterial activity against Streptococcus faecalis 755 assessed as growth inhibition by agar dilution method; format: functional; parameters: unit not given here
Klebsiella [14] = experiment: Antibacterial activity against drug-sensitive Klebsiella 2921 assessed as growth inhibition by agar dilution method; format: functional
Pseudomonas aeruginosa [15] = experiment: Antibacterial activity against Pseudomonas aeruginosa 2956 assessed as growth inhibition by agar dilution method; format: functional; parameters: unit not given here
Escherichia coli [16] = experiment: Antibacterial activity against streptomycin, neomycin, kanamycin, gentamicin-resistant Escherichia coli 2964 assessed as growth inhibition by agar dilution method; format: functional
Klebsiella [17] = experiment: Antibacterial activity against drug-sensitive Klebsiella 2921 assessed as growth inhibition at => 200 ul/ml by agar dilution method; format: functional, organism-based
Proteus vulgaris [18] = experiment: Antibacterial activity against drug-sensitive Proteus vulgaris 838 assessed as growth inhibition at => 100 ul/ml by agar dilution method; format: functional, organism-based
Enterococcus faecalis [19] = experiment: Antibacterial activity against Streptococcus faecalis 755 assessed as growth inhibition at => 200 ul/ml by agar dilution method; format: functional, organism-based
Pseudomonas aeruginosa [20] = experiment: Antibacterial activity against Pseudomonas aeruginosa 2956 assessed as growth inhibition at => 200 ul/ml by agar dilution method; format: functional, organism-based
Staphylococcus aureus [21] = experiment: Antibacterial activity against streptomycin, neomycin, kanamycin-resistant Staphylococcus aureus 2314 assessed as growth inhibition at => 200 ul/ml by agar dilution method; format: functional, organism-based
Proteus vulgaris [22] = experiment: Antibacterial activity against drug-sensitive Proteus vulgaris 838 assessed as growth inhibition at => 200 ul/ml by agar dilution method; format: functional, organism-based
Salmonella [23] = experiment: Antibacterial activity against drug-sensitive Salmonella 1287 assessed as growth inhibition at => 200 ul/ml by agar dilution method; format: functional, organism-based
Pseudomonas aeruginosa [24] = experiment: Antibacterial activity against kanamycin and gentamicin-resistant Pseudomonas aeruginosa 3033 assessed as growth inhibition at => 200 ul/ml by agar dilution method; format: functional, organism-based

Structure (SMILES) | MIC (Salmonella [1]) | MIC (Proteus vulgaris [2]) | MIC (Erwinia) | MIC (Pseudomonas aeruginosa [3]) [µg/mL] | MIC (Brucella [5]) | MIC (Staphylococcus aureus [6]) | MIC (Staphylococcus aureus [7]) [µg/mL] | MIC (Bacillus subtilis) | MIC (Serratia [8]) | MIC (Escherichia coli [9]) | MIC (Staphylococcus aureus [10]) | MIC (Escherichia coli [11]) | MIC (Serratia [12]) | MIC (Enterococcus faecalis [13]) | MIC (Klebsiella [14]) [uL/ml] | MIC (Pseudomonas aeruginosa [15]) | growth inhibition (GI) (Enterococcus faecalis [19]) | growth inhibition (GI) (Pseudomonas aeruginosa [20]) | other results
CC(=O)N[C@H]1[C@H](O)[C@@H](O)[C@@H](O[C@@H]([C@H](N)[C@H](O)CO)[C@@H](O)CN)O[C@@H]1CO | 200 | 200 | 100 | > 200 | 200 | 200 | > 200 | 100 | >200 | 200 | 200 | 100 | >200 | >200 |  |  |  |  | growth inhibition (GI) (Brucella [4]): inactive
CCC(=O)N[C@H]1[C@H](O)[C@@H](O)[C@@H](O[C@@H]([C@H](N)[C@H](O)CO)[C@@H](O)CN)O[C@@H]1CCl | 50 | 200 | >25 |  | 100 | 50 | 200 (≈ 481 µM) | 50 | 200 | 100 | 50 | 100 | 100 | 200 | 50 | 100 |  |  | 
NC[C@H]1O[C@H](O[C@H]2[C@H](O)[C@@H](O[C@H]3O[C@H](CO)[C@@H](O)[C@H](N)[C@H]3O)[C@H](N)C[C@@H]2N)[C@H](O)[C@@H](O)[C@@H]1O [KANAMYCIN] |  |  |  | 100 (≈ 206 µM) |  |  | > 100 |  |  |  |  |  |  |  |  |  |  |  | MIC (Escherichia coli [16]): 100 µg/mL (≈ 206 µM)
CCC(=O)N[C@H]1[C@H](O)[C@@H](O)[C@@H](O[C@@H]([C@H](N)[C@H](O)CO)[C@@H](O)CN)O[C@@H]1CO | <3.1 | 100 | <3.1 | 100 (≈ 252 µM) | 100 | 50 | 200 (≈ 503 µM) | 50 | >200 | 50 | 100 | 50 | 200 | 200 |  | 50 |  |  | 
CCCN[C@H]1[C@H](O)[C@@H](O)[C@@H](O[C@@H]([C@H](N)[C@H](O)CO)[C@@H](O)CN)O[C@@H]1CO | 100 | 200 |  | > 200 | 200 | 50 | 100 (≈ 261 µM) | 50 |  | 200 | 50 | 200 | 200 | 200 | 200 | 200 | inactive | inactive | growth inhibition (GI) (Klebsiella [17]): inactive; growth inhibition (GI) (Proteus vulgaris [18]): inactive
CCCC(=O)N[C@H]1[C@H](O)[C@@H](O)[C@@H](O[C@@H]([C@H](N)[C@H](O)CO)[C@@H](O)CN)O[C@@H]1CO | 200 | 200 | >200 |  |  | 200 |  | 100 | >200 | 200 | 200 | 200 | 200 | 200 | 200 | 200 | inactive | inactive | growth inhibition (GI) (Staphylococcus aureus [21]): inactive; growth inhibition (GI) (Proteus vulgaris [22]): inactive; growth inhibition (GI) (Salmonella [23]): inactive; growth inhibition (GI) (Pseudomonas aeruginosa [24]): inactive
